Data from patent EP4119948A1, “METHOD FOR STRATIFICATION AND TREATMENT OF MULTIPLE SCLEROSIS” (Universität Zürich, priority 2021, dated 2023).

Key:
[1] = tested on: CSF-infiltrating CD4+ T cells; assay: Proliferative response (3H-thymidine, stimulation index) of PHA-expanded CSF-infiltrating CD4+ T cells to peptides presented by autologous PBMCs; format: cell-based, human; settings: peptide 10 µM, 72 h, 105 MS patients
Method: (§1) PBMCs were freshly isolated using Ficoll (Eurobio, Germany) density gradient centrifugation. CSF-infiltrating CD4^+ T cells were expanded with PHA in a single round of stimulation using a previously reported protocol aimed to reduce TCR repertoire bias (Planas et al., […], Sci Transl Med, 10(462):eaat4301). 6 × 10^4 PHA-expanded CSF-infiltrating CD4^+ T cells were seeded in quadruplicate with 2 × 10^5 irradiated autologous PBMCs as antigen presenting cells and stimulated with peptides (Table 2) at a final concentration of 10 µM and with a T Cell Activation Kit (anti-CD3, anti-CD28, anti-CD2 beads) (Miltenyi Biotec) as positive control. Table 2. GDP-L-FS, myelin and CEF Peptides (amino acid sequences)
Proliferation was measured 72 h after stimulation using 3H-thymidine (Hartmann Analytic, Braunschweig, Germany) as previously reported (Planas et al., 2018). The stimulation index of single wells (SI) was calculated as follows: SI = (cpm well with peptide) / (Mean cpm wells without peptide). A well was considered positive if SI ≥2.

[2] = tested on: CSF-infiltrating CD4+ T cells; assay: IFN-γ release (ELISA) of PHA-expanded CSF-infiltrating CD4+ T cells stimulated with peptides presented by autologous PBMCs; format: cell-based, human; settings: peptide 10 µM, 105 MS patients
Method: as §1
Release of IFN-γ was measured using the ELISA MAX™ Deluxe Set Human IFN-γ (Biolegend, San Diego, CA, USA) according to the manufacturer's instructions. A well was considered positive if IFN-γ ≥20 pg/ml and a patient was considered positive for a peptide if the mean IFN-γ of the four wells was ≥ 20 pg/ml and at least 3 of the 4 wells were positive.

MBP 83-99 (ENPVVHFFKNIVTPRT; listed as Homo sapiens) [MBP (83-99), myelin peptide …]
Positive wells % Proliferation ([1]; well positive if SI ≥2, quadruplicates (420 wells per peptide)): 1.92%
Positive patients % Proliferation ([1]; patient positive if mean SI of four wells ≥2 and at least 3 of four wells SI ≥2): 0.96%
Positive wells % IFNγ release ([2]; well positive if IFN-γ ≥20 pg/ml, quadruplicates (420 wells per peptide)): 6.28%
Positive patients % IFNγ release ([2]; patient positive if mean IFN-γ of four wells ≥20 pg/ml and at least 3 of 4 wells positive): 5.71%
